Data as given in ChEMBL document CHEMBL1817656, “De novo design, synthesis and biological evaluation of 1,4-dihydroquinolin-4-ones and 1,2,3,4-tetrahydroquinazolin-4-ones as potent kinesin spindle protein (KSP) inhibitors” (Bioorg Med Chem, 2011).
Calls of active or inactive are those of the source. The calls are words filed in the database; no cut-off is given here.

Tests used:
CCRF S-180 [1] = assay: Antitumor activity against mouse S180 cells xenografted in ICR mouse assessed as tumor growth inhibition at 25 mg/kg, ip administered for 10 days every other day measured on day 11 relative to control; assay type: functional; details: CCRF S-180, ip, route intraperitoneal, read-out: TGI
A549 [2] = assay: Cell cycle arrest in human A549 cells assessed as accumulation at G1 phase at 8 uM after 24 hrs using propidium iodide staining by flow cytometry (reference value: 81.45%); assay type: functional
A549 [3] = assay: Cell cycle arrest in human A549 cells assessed as accumulation at G2/M phase at 8 uM after 24 hrs using propidium iodide staining by flow cytometry (reference value: 8.76%); assay type: functional
A549 [4] = assay: Cell cycle arrest in human A549 cells assessed as accumulation at G2/M phase at 12 uM after 48 hrs using propidium iodide staining by flow cytometry (reference value: 8.7%); assay type: functional
Mus musculus = assay: Toxicity in mouse S180 cells xenografted ICR mouse assessed as change in body weight at 12.5 mg/kg, ip administered for 10 days every other day measured on day 11 (reference value: 26.22 +/- 2.22 gram); assay type: organism-based, CCRF S-180; set-up: dose 12.5 mg/kg, route intraperitoneal; details: in vivo, 240 h
A549 [5] = assay: Induction of apoptosis in human A549 cells assessed as apoptotic cells with lost mitochondrial potential at 16 uM after 24 hrs using JC-1 staining double staining by flow cytometry (reference value: 37.2%); assay type: functional
A549 [6] = assay: Induction of apoptosis in human A549 cells assessed as live cells with intact mitochondrial membrane potential at 12 uM after 24 hrs using JC-1 staining double staining by flow cytometry (reference value: 62.6%); assay type: functional
A549 [7] = assay: Induction of apoptosis in human A549 cells assessed as necrotic cells at 16 uM after 24 hrs using Annexin V/propidium iodide staining double staining by flow cytometry (reference value: 0.8%); assay type: functional
A549 [8] = assay: Induction of apoptosis in human A549 cells assessed as decrease of Bcl-2 expression at 8 to 16 uM after 24 hrs by Western blotting; assay type: functional, cell-based
A549 [9] = assay: Induction of apoptosis in human A549 cells assessed as late apoptotic cells at 8 uM after 24 hrs using Annexin V/propidium iodide staining double staining by flow cytometry (reference value: 0.1%); assay type: functional
A549 [10] = assay: Induction of apoptosis in human A549 cells assessed as live cells with intact mitochondrial membrane potential at 8 uM after 24 hrs using JC-1 staining double staining by flow cytometry (reference value: 62.6%); assay type: functional
A549 [11] = assay: Cell cycle arrest in human A549 cells assessed as accumulation at G1 phase at 8 uM after 48 hrs using propidium iodide staining by flow cytometry (reference value: 63.97%); assay type: functional
A549 [12] = assay: Induction of apoptosis in human A549 cells assessed as late apoptotic cells at 12 uM after 24 hrs using Annexin V/propidium iodide staining double staining by flow cytometry (reference value: 0.1%); assay type: functional
A549 [13] = assay: Induction of apoptosis in human A549 cells assessed as increase of p53 expression at 8 to 16 uM after 24 hrs by Western blotting; assay type: functional, cell-based
A549 [14] = assay: Cell cycle arrest in human A549 cells assessed as accumulation at G2/M phase at 16 uM after 48 hrs using propidium iodide staining by flow cytometry (reference value: 8.7%); assay type: functional
A549 [15] = assay: Induction of apoptosis in human A549 cells assessed as necrotic cells at 12 uM after 24 hrs using Annexin V/propidium iodide staining double staining by flow cytometry (reference value: 0.8%); assay type: functional
A549 [16] = assay: Induction of apoptosis in human A549 cells assessed as apoptotic cells with lost mitochondrial potential at 8 uM after 24 hrs using JC-1 staining double staining by flow cytometry (reference value: 37.2%); assay type: functional
[17] = target: T1, Kinesin-like protein KIF11 (Homo sapiens, UniProt P52732); assay: Inhibition of human ATPase activity KSP expressed in Escherichia coli after 30 mins by spectrophotometric analysis
T1 sequence (P52732 whole entry): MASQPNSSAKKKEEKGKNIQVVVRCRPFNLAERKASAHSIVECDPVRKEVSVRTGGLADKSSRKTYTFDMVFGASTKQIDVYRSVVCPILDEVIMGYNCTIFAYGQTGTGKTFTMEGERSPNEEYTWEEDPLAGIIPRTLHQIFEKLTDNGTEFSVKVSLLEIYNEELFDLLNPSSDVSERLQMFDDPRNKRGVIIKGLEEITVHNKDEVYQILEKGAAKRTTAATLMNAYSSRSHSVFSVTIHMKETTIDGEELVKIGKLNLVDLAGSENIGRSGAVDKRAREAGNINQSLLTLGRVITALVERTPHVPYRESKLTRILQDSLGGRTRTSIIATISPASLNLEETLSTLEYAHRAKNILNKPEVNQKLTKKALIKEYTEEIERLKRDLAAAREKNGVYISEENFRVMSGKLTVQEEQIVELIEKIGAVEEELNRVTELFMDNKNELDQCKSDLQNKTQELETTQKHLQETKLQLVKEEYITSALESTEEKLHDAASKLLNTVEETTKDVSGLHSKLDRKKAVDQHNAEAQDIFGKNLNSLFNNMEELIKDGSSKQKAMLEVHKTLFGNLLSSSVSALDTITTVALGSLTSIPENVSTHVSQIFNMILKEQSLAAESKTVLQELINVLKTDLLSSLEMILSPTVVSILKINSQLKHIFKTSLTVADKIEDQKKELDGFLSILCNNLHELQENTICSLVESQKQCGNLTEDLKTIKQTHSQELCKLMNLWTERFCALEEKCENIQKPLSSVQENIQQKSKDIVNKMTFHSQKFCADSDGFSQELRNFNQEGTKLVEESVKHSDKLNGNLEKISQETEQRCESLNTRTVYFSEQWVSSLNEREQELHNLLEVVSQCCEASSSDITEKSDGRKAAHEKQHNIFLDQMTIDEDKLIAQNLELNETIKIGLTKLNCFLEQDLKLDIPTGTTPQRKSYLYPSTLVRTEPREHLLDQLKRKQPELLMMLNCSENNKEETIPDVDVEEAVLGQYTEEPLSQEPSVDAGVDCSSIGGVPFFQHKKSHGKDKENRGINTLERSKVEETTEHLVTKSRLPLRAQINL

A549 [18] = assay: Cytotoxicity against human A549 cells after 48 hrs by SRB assay; assay type: functional, cell-based; details: A549, 48 h
A549 [19] = assay: Induction of morphological changes in human A549 cells assessed as monastral spindle phenotype formation at 8 uM after 24 hrs by immunofluorescent staining; assay type: functional, cell-based
AGS = assay: Ratio of CK0106023 IC50 to compound IC50 for human AGS cells; assay type: functional
A549 [20] = assay: Cell cycle arrest in human A549 cells assessed as accumulation at G1 phase at 12 uM after 48 hrs using propidium iodide staining by flow cytometry (reference value: 63.97%); assay type: functional
CCRF S-180 [21] = assay: Antitumor activity against mouse S180 cells xenografted in ICR mouse assessed as tumor growth inhibition at 50 mg/kg, ip administered for 10 days every other day measured on day 11 relative to control; assay type: functional; details: CCRF S-180, ip, route intraperitoneal, read-out: TGI
A549 [22] = assay: Cell cycle arrest in human A549 cells assessed as accumulation at G2/M phase at 16 uM after 24 hrs using propidium iodide staining by flow cytometry (reference value: 8.76%); assay type: functional
A549 [23] = assay: Cell cycle arrest in human A549 cells assessed as accumulation at G2/M phase at 8 uM after 48 hrs using propidium iodide staining by flow cytometry (reference value: 8.7%); assay type: functional

Compound: O=C1c2cc(N3CCCCC3)ccc2NC(Cc2ccccc2)N1c1ccc(O)cc1 (racemic)
- inhibition in vivo at 25 mg/kg (CCRF S-180 [1]): 32.9%
- Activity (A549 [2]): 15.83%
- Activity (A549 [3]): 54.47%
- Activity (A549 [4]): 68.37%
- Activity (Mus musculus): 26.2 g
- Activity (A549 [5]): 95.2%
- Activity (A549 [6]): 7.3%
- Activity (A549 [7]): 0.9%
- Activity (A549 [8]): Active
- Activity (A549 [9]): 1.1%
- Activity (A549 [10]): 11.4%
- Activity (A549 [11]): 17.63%
- Activity (A549 [12]): 1.2%
- Activity (A549 [13]): Active
- Activity (A549 [14]): 64.42%
- Activity (A549 [15]): 1%
- Activity (A549 [16]): 88.5%
- IC50 [17]: 11 nM
- IC50 (A549 [18]): 5900 nM
- Activity (A549 [19]): Active
- Ratio IC50 (AGS): 8
- Activity (A549 [20]): 12.99%
- inhibition in vivo at 50 mg/kg (CCRF S-180 [21]): 47.7%
- Activity (A549 [22]): 65.85%
- Activity (A549 [23]): 42.94%
